In article PMC9481570, “A small molecule antagonist of SMN disrupts the interaction between SMN and RNAP II” (Nature Communications, 2022):

Experiments:
[1] = molecular target: T1, SMN_Y127F (Homo sapiens, UniProt Q16637, Y127F); experiment: ITC binding to SMN Tudor mutant Y127F; settings: Fig. 3d
T1 construct: cloned into pET28-MHL vector: SMN (aa 82–147); His (N, cleaved yes); made in house; host or cells: E. coli BL21 (DE3) Codon plus RIL
Text: (§1) The coding DNA fragments of following Tudor domains were cloned into pET28-MHL vector: SMN (aa 82–147), UHRF1 (aa 126–285), SMNDC1 (aa 53–130), TDRD3 (aa 554–611), SND1 (aa 650–910), TDRD2 (aa 327–420), FXR1 (aa 2–132), PHF1 (aa 28–87), SGF29 (aa 115–293), JMJD2A (aa 897–1101), 53BP1 (aa 1483–1606), SETDB1 (aa 190–410), LBR (aa 1–67), ZGPAT (aa 120–271). The coding regions of chromodomain of CBX7 (aa 8–62), PWWP domain of DNMT3A (aa 275–417), WD40 repeats of WDR5 (aa 24–334) and CW domain of ZCWPW2 (aa 21–78) were also subcloned into pET28-MHL vector to generate N-terminally His-tagged fusion protein. The MBT repeats of L3MBTL1 (aa 200–522) and L3MBTL2 (aa 170–625) were subcloned into pET28GST-LIC vector to generate N-terminally GST-His-tagged fusion protein. All the plasmids were generated by ligase independent cloning (Vazyme Biotech, C112 or ABclonal Technology, RK21020). […] The molecular weight of all protein samples was measured by mass spectrometry.
(§2) For the ITC measurement, the concentrated proteins were diluted into 20 mM Tris-HCl, pH 7.5, 150 mM NaCl (ITC buffer); the lyophilized compounds were dissolved in the same buffer, and the pH value was adjusted by adding 2 M NaOH or 2 M HCl. […] Compound concentrations were calculated from the mass and the volume of the solvent. […]

[2] = molecular target: T2, TDRD2 (Homo sapiens, UniProt Q9Y2W6); experiment: ITC binding to TDRD2; settings: Fig. 1c
T2 construct: TDRD2 (aa 327–420); His (N, cleaved yes); made in house; host or cells: E. coli BL21 (DE3) Codon plus RIL
Text: as §1, §2

T2 sequence (Q9Y2W6 327-420): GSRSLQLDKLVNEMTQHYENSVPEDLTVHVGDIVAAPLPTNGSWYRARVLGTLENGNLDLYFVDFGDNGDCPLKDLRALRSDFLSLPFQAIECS
T1 sequence (Q16637 82-147 Y127F): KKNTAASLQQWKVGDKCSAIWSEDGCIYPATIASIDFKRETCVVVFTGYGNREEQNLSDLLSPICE

Question: With Cn1c2c(c(=N)c3c1CCC3)CCC2 [Compound 1, 4-methyl-2,3,4,5,6,7-hexahydrodicyclopenta[b,e]pyridin-8(1H)-imine] as the compound, how does the Kd [1] read?
Answer: 4 ± 0.2 µM

Question: What about the Kd [2] of the same compound?
Answer: > 244 µM
